Reference: patent publication US11180462B2, “Microbiocidal oxadiazole derivatives” (SYNGENTA PARTICIPATIONS AG, priority 2015, dated 2021)

Legend:
[1] = test system: Puccinia recondita f. Sp. Tritici; assay: Fungicidal activity against Puccinia recondita f. sp. tritici / wheat / leaf disc preventative (brown rust); assay type: in vivo; details: foliar, 200 ppm in the applied formulation, wheat leaf segments, preventative, compared to untreated control leaf disks, read-out: disease control
Experimental: Leaf disks or leaf segments of various plant species are cut from plants grown in a greenhouse. The cut leaf disks or segments are placed in multiwell plates (24-well format) onto water agar. The leaf disks are sprayed with a test solution before (preventative) or after (curative) inoculation. Compounds to be tested are prepared as DMSO solutions (max. 10 mg/ml) which are diluted to the appropriate concentration with 0.025% Tween20 just before spraying. The inoculated leaf disks or segments are incubated under defined conditions (temperature, relative humidity, light, etc.) according to the respective test system. A single evaluation of disease level is carried out 3 to 14 days after inoculation, depending on the pathosystem. Percent disease control relative to the untreated check leaf disks or segments is then calculated.
Fungicidal Activity Against Puccinia recondita f. Sp. Tritici/Wheat/Leaf Disc Preventative (Brown Rust)
Wheat leaf segments cv. Kanzler were placed on agar in multiwell plates (24-well format) and sprayed with the formulated test compound diluted in water. The leaf disks were inoculated with a spore suspension of the fungus 1 day after application. The inoculated leaf segments were incubated at 19° C. and 75% relative humidity (rh) under a light regime of 12 hours light/12 hours darkness in a climate cabinet and the activity of a compound was assessed as percent disease control compared to untreated when an appropriate level of disease damage appears in untreated check leaf segments (7 to 9 days after application).
The following compounds at 200 ppm in the applied formulation give at least 80% disease control in this test when compared to untreated control leaf disks under the same conditions, which show extensive disease development.

[2] = test system: Glomerella lagenarium (Colletotrichum lagenarium); assay: Fungicidal activity against Glomerella lagenarium (Colletotrichum lagenarium) liquid culture / cucumber / preventative (anthracnose); assay type: cell-based; details: Colletotrichum orbiculare; 20 ppm in the applied formulation; liquid culture (PDB), growth inhibition measured photometrically after 3 to 4 days; compared to untreated control; read-out: disease control
Procedure, shortened: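 Photometric read-out of fungal growth after 2–7 days, expressed as percent antifungal activity versus untreated check. Cryo-stored conidia in PDB; compound at 20 ppm; dark, 24 °C, 96% RH.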

Compound	pest or weed control at 200 ppm [1] [%]	inhibition of growth at 20 ppm [2] [%]
CON(Cc1ccc(-c2noc(C(F)(F)F)n2)cc1)C(=O)c1cccc2nnsc12 [Compound 1.67, N-methoxy-N-[[4-[5-(trifluoromethyl)-1,2,4-oxadiazol-3-yl]phenyl]methyl]-1,2,3-benzothiadiazole-7-carboxamide]	≥ 80	≥ 80
C#CCOC(C(=O)N(Cc1ccc(-c2noc(C(F)(F)F)n2)cc1)OC)c1ccc(Cl)cc1 (centres unmarked) [Compound 1.69, 2-(4-chlorophenyl)-N-methoxy-2-prop-2-ynoxy-N-[[4-[5-(trifluoromethyl)-1,2,4-oxadiazol-3-yl]phenyl]methyl]-acetamide]	≥ 80	≥ 80
Cc1cccc(C)c1C(=O)N(Cc1ccc(-c2noc(C(F)(F)F)n2)cc1)C1CC1 [Compound 1.105, N-cyclopropyl-2,6-dimethyl-N-[[4-[5-(trifluoromethyl)-1,2,4-oxadiazol-3-yl]phenyl]methyl]-benzamide]	≥ 80	≥ 80
CC1(C(=O)N(Cc2ccc(-c3noc(C(F)(F)F)n3)cc2)C2CC2)CC1(Cl)Cl (centres unmarked) [Compound 1.107, 2,2-dichloro-N-cyclopropyl-1-methyl-N-[[4-[5-(trifluoromethyl)-1,2,4-oxadiazol-3-yl]phenyl]methyl]-cyclopropane-carboxamide]	≥ 80	≥ 80
COc1ccccc1CC(=O)N(Cc1ccc(-c2noc(C(F)(F)F)n2)cc1)C1CC1 [Compound 1.113, N-cyclopropyl-2-(2-methoxyphenyl)-N-[[4-[5-(trifluoromethyl)-1,2,4-oxadiazol-3-yl]phenyl]methyl]-acetamide]	≥ 80	≥ 80
O=C(c1ccccc1Cl)N(Cc1ccc(-c2noc(C(F)(F)F)n2)cc1)C1CC1 [Compound 1.120, 2-chloro-N-cyclopropyl-N-[[4-[5-(trifluoromethyl)-1,2,4-oxadiazol-3-yl]phenyl]methyl]-benzamide]	≥ 80	≥ 80
O=C(c1cc2c(cc1Br)OCO2)N(Cc1ccc(-c2noc(C(F)(F)F)n2)cc1)C1CC1 [Compound 1.133, 6-bromo-N-cyclopropyl-N-[[4-[5-(trifluoromethyl)-1,2,4-oxadiazol-3-yl]phenyl]methyl]-1,3-benzodioxole-5-carboxamide]	≥ 80	≥ 80
C#CCOC(C(=O)N(Cc1ccc(-c2noc(C(F)(F)F)n2)cc1)C1CC1)c1ccc(Cl)cc1 (centres unmarked) [Compound 1.141, 2-(4-chlorophenyl)-N-cyclopropyl-2-prop-2-ynoxy-N-[[4-[5-(trifluoromethyl)-1,2,4-oxadiazol-3-yl]phenyl]methyl]-acetamide]	≥ 80	
O=C(c1ccc(Cl)cc1)N(Cc1ccc(-c2noc(C(F)(F)F)n2)cc1)C1CC1 [Compound 1.142, 4-chloro-N-cyclopropyl-N-[[4-[5-(trifluoromethyl)-1,2,4-oxadiazol-3-yl]phenyl]methyl]-benzamide]	≥ 80	≥ 80
COc1ccc(C2(C(=O)N(Cc3ccc(-c4noc(C(F)(F)F)n4)cc3)C3CC3)CC2)cc1 [Compound 1.143, N-cyclopropyl-1-(4-methoxyphenyl)-N-[[4-[5-(trifluoromethyl)-1,2,4-oxadiazol-3-yl]phenyl]methyl]-cyclopropane-carboxamide]	≥ 80	
C#CCN(Cc1ccc(-c2noc(C(F)(F)F)n2)cc1)C(=O)CC1CCCC1 [Compound 1.152, 2-cyclopentyl-N-prop-2-ynyl-N-[[4-[5-(trifluoromethyl)-1,2,4-oxadiazol-3-yl]phenyl]methyl]-acetamide]	≥ 80	≥ 80
C#CCN(Cc1ccc(-c2noc(C(F)(F)F)n2)cc1)C(=O)c1cc(Cl)ccc1O [Compound 1.184, 5-chloro-2-hydroxy-N-prop-2-ynyl-N-[[4-(5-(trifluoromethyl)-1,2,4-oxadiazol-3-yl]phenyl]methyl]-benzamide]	≥ 80	≥ 80
C#CCN(Cc1ccc(-c2noc(C(F)(F)F)n2)cc1)C(=O)Cc1ccccc1 [Compound 1.186, 2-phenyl-N-prop-2-ynyl-N-[[4-[5-(trifluoromethyl)-1,2,4-oxadiazol-3-yl]phenyl]methyl]-acetamide]	≥ 80	
C#CCOC(=O)NC(C(=O)N(CC#C)Cc1ccc(-c2noc(C(F)(F)F)n2)cc1)C(C)C (centres unmarked) [Compound 1.198, prop-2-ynyl N-[2-methyl-1-[prop-2-ynyl-[[4-[5-(trifluoromethyl)-1,2,4-oxadiazol-3-yl]phenyl]methyl]-carbamoyl]propyl]-carbamate]	≥ 80	
C#CCCC(=O)N(Cc1ccc(-c2noc(C(F)(F)F)n2)cc1)CC1CC1 [Compound 1.205, N-(cyclopropylmethyl)-N-[[4-[5-(trifluoromethyl)-1,2,4-oxadiazol-3-yl]phenyl]methyl]pent-4-ynamide]	≥ 80	≥ 80
O=C(Cc1cccnc1)N(Cc1ccc(-c2noc(C(F)(F)F)n2)cc1)CC1CC1 [Compound 1.214, N-(cyclopropylmethyl)-2-(3-pyridyl)-N-[[4-[5-(trifluoromethyl)-1,2,4-oxadiazol-3-yl]phenyl]methyl]-acetamide]	≥ 80	≥ 80
CC(C)(CCl)C(=O)N(Cc1ccc(-c2noc(C(F)(F)F)n2)cc1)CC1CC1 [Compound 1.219, 3-chloro-N-(cyclopropylmethyl)-2,2-dimethyl-N-[[4-[5-(trifluoromethyl)-1,2,4-oxadiazol-3-yl]phenyl]methyl]-propanamide]	≥ 80	≥ 80
O=C(Cc1ccc(Cl)cc1)N(Cc1ccc(-c2noc(C(F)(F)F)n2)cc1)CC1CC1 [Compound 1.234, 2-(4-chlorophenyl)-N-(cyclopropylmethyl)-N-[[4-[5-(trifluoromethyl)-1,2,4-oxadiazol-3-yl]phenyl]methyl]-acetamide]	≥ 80	
O=C(c1ccccc1)N(Cc1ccc(-c2noc(C(F)(F)F)n2)cc1)CC1CC1 [Compound 1.247, N-(cyclopropylmethyl)-N-[[4-[5-(trifluoromethyl)-1,2,4-oxadiazol-3-yl]phenyl]methyl]-benzamide]	≥ 80	≥ 80
CC=CC(=O)N(OC)C(C)c1ccc(-c2noc(C(F)(F)F)n2)cc1 (centres unmarked) [Compound 1.250, N-methoxy-N-[1-[4-[5-(trifluoromethyl)-1,2,4-oxadiazol-3-yl]phenyl]ethyl]but-2-enamide]	≥ 80	≥ 80
CON(C(=O)C1CC1(F)F)C(C)c1ccc(-c2noc(C(F)(F)F)n2)cc1 (centres unmarked) [Compound 1.251, 2,2-difluoro-N-methoxy-N-[1-[4-[5-(trifluoromethyl)-1,2,4-oxadiazol-3-yl]phenyl]ethyl]-cyclopropane-carboxamide]	≥ 80	≥ 80
CON(C(=O)C=C(F)CCl)C(C)c1ccc(-c2noc(C(F)(F)F)n2)cc1 (centres unmarked) [Compound 1.252, 4-chloro-3-fluoro-N-methoxy-N-[1-[4-[5-(trifluoromethyl)-1,2,4-oxadiazol-3-yl]phenyl]ethyl]but-2-enamide]	≥ 80	≥ 80
CON(C(=O)C1=CCCC1)C(C)c1ccc(-c2noc(C(F)(F)F)n2)cc1 (centres unmarked) [Compound 1.258, N-methoxy-N-[1-[4-[5-(trifluoromethyl)-1,2,4-oxadiazol-3-yl]phenyl]ethyl]-cyclopentene-1-carboxamide]	≥ 80	≥ 80
COCCN(Cc1ccc(-c2noc(C(F)(F)F)n2)cc1)C(=O)C1(NC=O)CC1 [Compound 1.354, 1-formamido-N-(2-methoxyethyl)-N-[[4-[5-(trifluoromethyl)-1,2,4-oxadiazol-3-yl]phenyl]methyl]-cyclopropane-carboxamide]	≥ 80	
O=CNC1(C(=O)N(Cc2ccc(-c3noc(C(F)(F)F)n3)cc2)CC2CCCO2)CC1 (centres unmarked) [Compound 1.441, 1-formamido-N-(tetrahydrofuran-2-ylmethyl)-N-[[4-[5-(trifluoromethyl)-1,2,4-oxadiazol-3-yl]phenyl]methyl]-cyclopropane-carboxamide]	≥ 80	
CC(=O)NCC(=O)N(Cc1ccc(-c2noc(C(F)(F)F)n2)cc1)OCc1ccc(Cl)cc1 [Compound 1.552, 2-ace tamido-N-[(4-chlorophenyl)-methoxy]-N-[[4-[5-(trifluoromethyl)-1,2,4-oxadiazol-3-yl]phenyl]methyl]-acetamide]	≥ 80	
